Here are results for 13 compounds from ChEMBL document CHEMBL2046359, “Novel tricyclic indeno[2,1-d]pyrimidines with dual antiangiogenic and cytotoxic activities as potent antitumor agents” (Bioorg Med Chem, 2012).

Activity calls are given as the source filed them. The calls are words filed in the database; no cut-off is given here.

Assay [1] deals with Thymidylate synthase (Homo sapiens, UniProt P04818). Description: Inhibition of human thymidylate synthase.
The target of assay [2] is Epidermal growth factor receptor (Homo sapiens, UniProt P00533). It is filed as cell-based, A-431.
Chain of Epidermal growth factor receptor (P00533 whole entry): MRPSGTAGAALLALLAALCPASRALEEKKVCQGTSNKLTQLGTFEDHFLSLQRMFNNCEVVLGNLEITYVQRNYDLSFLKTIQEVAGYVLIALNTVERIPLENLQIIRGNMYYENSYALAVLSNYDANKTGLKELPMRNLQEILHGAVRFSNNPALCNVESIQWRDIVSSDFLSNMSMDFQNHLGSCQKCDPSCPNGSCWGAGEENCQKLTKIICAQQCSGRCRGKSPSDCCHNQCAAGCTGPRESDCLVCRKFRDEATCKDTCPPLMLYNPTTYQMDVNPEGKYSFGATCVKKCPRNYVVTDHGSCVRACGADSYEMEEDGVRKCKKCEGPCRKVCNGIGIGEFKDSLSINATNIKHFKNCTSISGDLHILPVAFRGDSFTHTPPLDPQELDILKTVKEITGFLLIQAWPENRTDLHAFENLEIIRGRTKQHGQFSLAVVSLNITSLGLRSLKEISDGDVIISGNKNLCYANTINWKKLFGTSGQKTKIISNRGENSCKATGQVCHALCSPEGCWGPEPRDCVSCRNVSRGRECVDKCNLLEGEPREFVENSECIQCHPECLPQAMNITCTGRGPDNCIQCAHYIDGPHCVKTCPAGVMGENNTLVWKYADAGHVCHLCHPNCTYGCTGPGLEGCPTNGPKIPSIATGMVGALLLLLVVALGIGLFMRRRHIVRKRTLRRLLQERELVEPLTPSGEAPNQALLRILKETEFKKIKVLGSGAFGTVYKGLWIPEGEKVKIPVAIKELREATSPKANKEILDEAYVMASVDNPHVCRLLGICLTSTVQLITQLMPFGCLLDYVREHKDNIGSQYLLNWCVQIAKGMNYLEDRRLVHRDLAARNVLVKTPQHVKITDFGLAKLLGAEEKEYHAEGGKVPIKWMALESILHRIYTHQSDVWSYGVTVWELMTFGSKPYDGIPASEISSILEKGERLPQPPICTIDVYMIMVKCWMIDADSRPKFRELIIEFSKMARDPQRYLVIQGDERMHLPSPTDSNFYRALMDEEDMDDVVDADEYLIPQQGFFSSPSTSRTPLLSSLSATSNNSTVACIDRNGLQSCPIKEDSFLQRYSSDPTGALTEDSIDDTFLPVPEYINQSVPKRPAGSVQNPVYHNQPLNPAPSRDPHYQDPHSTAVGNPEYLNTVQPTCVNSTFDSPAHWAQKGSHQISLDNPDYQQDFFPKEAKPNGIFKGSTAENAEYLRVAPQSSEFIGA
Assay [3] concerns the target T1, Bifunctional dihydrofolate reductase-thymidylate synthase (Toxoplasma gondii, UniProt Q07422).
T1 sequence (Q07422 whole entry): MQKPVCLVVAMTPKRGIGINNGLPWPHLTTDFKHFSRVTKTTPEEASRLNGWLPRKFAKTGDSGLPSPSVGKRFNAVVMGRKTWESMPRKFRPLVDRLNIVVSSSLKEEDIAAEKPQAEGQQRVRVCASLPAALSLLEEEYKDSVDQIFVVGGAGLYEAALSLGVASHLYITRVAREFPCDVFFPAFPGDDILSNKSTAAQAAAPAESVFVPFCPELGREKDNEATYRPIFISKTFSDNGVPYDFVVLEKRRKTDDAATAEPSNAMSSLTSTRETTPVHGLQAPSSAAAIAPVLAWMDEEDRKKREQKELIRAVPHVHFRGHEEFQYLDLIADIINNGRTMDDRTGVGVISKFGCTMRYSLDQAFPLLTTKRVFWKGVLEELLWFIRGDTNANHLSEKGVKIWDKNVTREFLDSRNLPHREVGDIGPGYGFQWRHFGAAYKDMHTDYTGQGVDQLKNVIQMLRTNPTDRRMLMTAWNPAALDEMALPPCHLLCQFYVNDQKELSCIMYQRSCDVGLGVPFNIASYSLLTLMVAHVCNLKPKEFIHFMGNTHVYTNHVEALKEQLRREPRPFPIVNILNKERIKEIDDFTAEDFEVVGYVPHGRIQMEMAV
Description: Inhibition of Toxoplasma gondii thymidylate synthase.

Assay [4] addresses T2, Dihydrofolate reductase (Homo sapiens, UniProt P00374).
T2 sequence (P00374 whole entry): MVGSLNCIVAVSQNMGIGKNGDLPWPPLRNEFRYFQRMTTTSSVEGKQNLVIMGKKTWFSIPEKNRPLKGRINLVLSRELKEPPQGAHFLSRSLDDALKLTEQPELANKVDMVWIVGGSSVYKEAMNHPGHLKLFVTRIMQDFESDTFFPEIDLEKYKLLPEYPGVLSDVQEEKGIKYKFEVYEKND

A short description of assay [5]: Inhibition of Escherichia coli thymidylate synthase.
Assay [6] deals with A-431. In words: Antiproliferative activity against human A431 cells after 48 hrs by CYQUANT assay. Particulars: A-431, 48 h. In kind it is functional, cell-based.
Assay [7] concerns the target T1, Bifunctional dihydrofolate reductase-thymidylate synthase. In words: Inhibition of Toxoplasma gondii DHFR.
The target in assay [8] is Platelet-derived growth factor receptor beta (Homo sapiens, UniProt P09619). In words: Inhibition of PDGFRbeta in human SF539 cells pretreated for 60 mins measured after 10 mins by ELISA.
Chain of Platelet-derived growth factor receptor beta (P09619 whole entry): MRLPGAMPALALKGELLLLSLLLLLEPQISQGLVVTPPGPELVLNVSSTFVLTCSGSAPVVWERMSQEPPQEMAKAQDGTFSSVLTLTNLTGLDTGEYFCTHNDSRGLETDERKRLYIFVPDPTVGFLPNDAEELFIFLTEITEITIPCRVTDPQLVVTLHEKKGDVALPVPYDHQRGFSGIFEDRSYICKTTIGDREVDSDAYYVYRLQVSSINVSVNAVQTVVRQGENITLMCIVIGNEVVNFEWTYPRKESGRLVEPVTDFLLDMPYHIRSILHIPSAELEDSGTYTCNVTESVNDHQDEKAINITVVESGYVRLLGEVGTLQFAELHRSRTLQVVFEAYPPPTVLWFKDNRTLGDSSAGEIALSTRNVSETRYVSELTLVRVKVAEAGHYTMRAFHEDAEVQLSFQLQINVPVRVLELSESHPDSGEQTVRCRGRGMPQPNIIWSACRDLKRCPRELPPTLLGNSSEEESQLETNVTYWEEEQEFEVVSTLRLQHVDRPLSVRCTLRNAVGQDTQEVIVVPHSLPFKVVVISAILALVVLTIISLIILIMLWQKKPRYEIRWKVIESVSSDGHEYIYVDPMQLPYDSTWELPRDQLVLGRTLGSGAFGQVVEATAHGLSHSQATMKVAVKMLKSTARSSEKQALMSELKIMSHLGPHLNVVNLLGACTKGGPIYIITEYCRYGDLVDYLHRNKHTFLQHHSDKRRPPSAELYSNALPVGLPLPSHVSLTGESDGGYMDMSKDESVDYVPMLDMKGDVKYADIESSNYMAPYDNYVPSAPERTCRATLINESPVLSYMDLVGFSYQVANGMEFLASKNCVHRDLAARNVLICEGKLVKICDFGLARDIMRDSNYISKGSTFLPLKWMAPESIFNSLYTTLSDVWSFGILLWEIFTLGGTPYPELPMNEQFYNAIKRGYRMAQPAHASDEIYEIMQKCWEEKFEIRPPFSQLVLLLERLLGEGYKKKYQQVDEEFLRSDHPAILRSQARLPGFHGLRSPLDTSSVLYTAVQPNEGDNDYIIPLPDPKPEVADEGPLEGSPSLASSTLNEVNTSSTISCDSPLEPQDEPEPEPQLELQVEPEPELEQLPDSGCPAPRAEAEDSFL
Assay [9] relates to B16-F10. Description: Antitumor activity against mouse B16F10 cells allografted in NCr nu/nu mouse assessed as decrease in tumor metastasis at 35 mg/kg, ip administered three times weekly for 2 weeks.
The test system of assay [10] is B16-F10. Description: Antitumor activity against mouse B16F10 cells allografted in NCr nu/nu mouse assessed as inhibition of tumor angiogenesis at 35 mg/kg, ip administered three times weekly for 2 weeks.
Assay [11] concerns B16-F10. Description: Antitumor activity against mouse B16F10 cells allografted in NCr nu/nu mouse assessed as tumor growth reduction at 35 mg/kg, ip administered three times weekly for 2 weeks.
For assay [12], the target named is T3, Dihydroorotate dehydrogenase (Plasmodium falciparum, UniProt Q54A96).
T3 sequence (Q54A96 whole entry): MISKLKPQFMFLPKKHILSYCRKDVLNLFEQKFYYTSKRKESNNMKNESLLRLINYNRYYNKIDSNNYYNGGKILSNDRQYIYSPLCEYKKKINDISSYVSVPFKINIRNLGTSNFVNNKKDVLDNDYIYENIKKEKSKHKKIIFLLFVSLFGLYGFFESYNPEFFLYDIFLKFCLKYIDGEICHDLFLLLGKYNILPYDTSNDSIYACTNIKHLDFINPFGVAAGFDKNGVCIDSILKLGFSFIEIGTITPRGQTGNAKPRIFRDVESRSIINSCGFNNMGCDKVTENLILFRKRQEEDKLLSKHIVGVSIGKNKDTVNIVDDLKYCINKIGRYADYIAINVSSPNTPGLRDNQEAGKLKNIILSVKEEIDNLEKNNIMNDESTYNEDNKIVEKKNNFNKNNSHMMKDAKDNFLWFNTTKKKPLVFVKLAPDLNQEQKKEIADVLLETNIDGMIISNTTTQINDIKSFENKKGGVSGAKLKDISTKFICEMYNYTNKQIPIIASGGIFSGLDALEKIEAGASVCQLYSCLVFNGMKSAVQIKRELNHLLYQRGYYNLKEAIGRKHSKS
In words: Inhibition of Plasmodium falciparum DHODH.

The target in assay [13] is Dihydroorotate dehydrogenase (quinone), mitochondrial (Homo sapiens, UniProt Q02127). Description: Inhibition of human DHODH.
Chain of Dihydroorotate dehydrogenase (quinone), mitochondrial (Q02127 whole entry): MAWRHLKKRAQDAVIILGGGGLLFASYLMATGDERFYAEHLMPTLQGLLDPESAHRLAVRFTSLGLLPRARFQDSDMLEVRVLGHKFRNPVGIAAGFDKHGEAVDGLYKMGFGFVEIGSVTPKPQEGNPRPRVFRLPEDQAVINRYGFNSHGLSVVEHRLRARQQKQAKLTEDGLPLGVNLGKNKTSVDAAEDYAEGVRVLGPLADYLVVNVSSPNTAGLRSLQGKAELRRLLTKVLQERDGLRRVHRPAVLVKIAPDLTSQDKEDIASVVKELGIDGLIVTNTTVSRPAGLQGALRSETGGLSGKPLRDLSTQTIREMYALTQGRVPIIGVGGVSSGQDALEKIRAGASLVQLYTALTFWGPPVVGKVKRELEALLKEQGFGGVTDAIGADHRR
In assay [14] the target is Vascular endothelial growth factor receptor 2 (Homo sapiens, UniProt P35968). In kind it is cell-based, U-251.
Chain of Vascular endothelial growth factor receptor 2 (P35968 whole entry): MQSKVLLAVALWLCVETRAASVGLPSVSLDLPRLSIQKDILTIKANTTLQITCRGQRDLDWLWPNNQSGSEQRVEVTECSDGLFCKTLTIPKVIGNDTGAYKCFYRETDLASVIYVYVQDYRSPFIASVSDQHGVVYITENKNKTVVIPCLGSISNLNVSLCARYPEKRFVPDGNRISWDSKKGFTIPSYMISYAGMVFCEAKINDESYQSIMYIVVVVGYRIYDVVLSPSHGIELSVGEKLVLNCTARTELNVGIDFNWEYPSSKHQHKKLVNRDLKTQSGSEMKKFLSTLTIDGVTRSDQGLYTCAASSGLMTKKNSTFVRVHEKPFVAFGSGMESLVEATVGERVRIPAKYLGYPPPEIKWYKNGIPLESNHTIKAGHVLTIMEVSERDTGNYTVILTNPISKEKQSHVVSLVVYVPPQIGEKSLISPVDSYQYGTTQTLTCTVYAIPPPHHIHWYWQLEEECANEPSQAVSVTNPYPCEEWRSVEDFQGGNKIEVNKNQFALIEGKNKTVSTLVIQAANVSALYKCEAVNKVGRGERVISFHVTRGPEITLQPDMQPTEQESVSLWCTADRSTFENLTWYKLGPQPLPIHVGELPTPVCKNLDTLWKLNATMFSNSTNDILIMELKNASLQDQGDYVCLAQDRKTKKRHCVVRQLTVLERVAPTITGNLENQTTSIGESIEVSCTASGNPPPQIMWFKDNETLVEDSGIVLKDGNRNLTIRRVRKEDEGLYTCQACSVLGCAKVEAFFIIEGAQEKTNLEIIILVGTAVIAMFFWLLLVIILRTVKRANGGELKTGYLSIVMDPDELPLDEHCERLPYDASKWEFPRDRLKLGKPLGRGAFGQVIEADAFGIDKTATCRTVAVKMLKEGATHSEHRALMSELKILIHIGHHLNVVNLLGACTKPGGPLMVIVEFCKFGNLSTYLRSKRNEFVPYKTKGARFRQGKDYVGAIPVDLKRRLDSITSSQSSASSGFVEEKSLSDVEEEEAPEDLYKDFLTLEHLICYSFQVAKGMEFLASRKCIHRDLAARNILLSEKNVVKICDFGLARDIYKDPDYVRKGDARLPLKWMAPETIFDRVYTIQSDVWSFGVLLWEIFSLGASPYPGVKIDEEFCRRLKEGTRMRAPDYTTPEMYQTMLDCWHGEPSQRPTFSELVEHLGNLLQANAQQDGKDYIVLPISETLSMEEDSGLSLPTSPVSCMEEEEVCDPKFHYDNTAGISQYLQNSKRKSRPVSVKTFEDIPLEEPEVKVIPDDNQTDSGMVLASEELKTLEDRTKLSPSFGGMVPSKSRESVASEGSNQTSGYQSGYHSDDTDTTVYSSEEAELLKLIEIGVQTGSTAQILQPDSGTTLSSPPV
The nature of assay [15]: Antiangiogenic activity in VEGF/bFGF-stimulated chicken embryo after 48 hrs by CAM assay. In kind it is functional, Gallus gallus.

Chain of Thymidylate synthase (P04818 whole entry): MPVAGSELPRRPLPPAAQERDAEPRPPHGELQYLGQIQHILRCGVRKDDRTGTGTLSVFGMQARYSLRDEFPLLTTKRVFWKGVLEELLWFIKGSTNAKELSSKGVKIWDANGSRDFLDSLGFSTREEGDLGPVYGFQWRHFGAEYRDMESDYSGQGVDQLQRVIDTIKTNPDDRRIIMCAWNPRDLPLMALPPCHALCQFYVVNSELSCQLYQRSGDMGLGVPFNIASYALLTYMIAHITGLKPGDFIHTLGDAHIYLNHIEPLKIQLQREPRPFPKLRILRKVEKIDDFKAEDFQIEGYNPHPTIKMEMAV

`Nc1nc2c(c(Nc3ccc(F)c(Cl)c3)n1)-c1ccccc1C2`: the IC50 in [1] was over 13 µM; in [2], over 200 µM; in assay [3] it was over 13 µM; in [4], over 16 µM; in assay [5], over 13 µM; in assay [6], 158 µM. This compound came in with an IC50 in assay [7] of over 16 µM.

`Nc1nc2c(c(Nc3cccc(Cl)c3)n1)-c1ccccc1C2`: the IC50 in [8] was over 500 µM; in assay [6], 235 µM.

Regarding `Cc1[nH]c(/C=C2\C(=O)Nc3ccccc32)c(C)c1CCC(=O)O`, the outcome in assay [9] and in [10] was Active. In addition, the “growth inhibition (GI)” value in assay [11] is “Active”.

As to `Nc1nc2c(c(Nc3ccc(Cl)cc3F)n1)-c1ccccc1C2`, the IC50 in [1] was over 13 µM; in assay [3], over 13 µM; in assay [12] it was over 200 µM; in [4], over 16 µM; in [5], over 13 µM; in [6], 9.7 µM. Also, the results for the IC50 in [13] and in assay [7] were over 200 µM and over 16 µM, respectively.

Take `Nc1nc2c(c(Nc3cccc(F)c3)n1)-c1ccccc1C2`: the IC50 was over 300 µM in assay [2], over 200 µM in [12], 9.8 µM in assay [6] and over 200 µM in assay [13].

For `Nc1nc2c(c(Nc3ccc(C(F)(F)F)cc3)n1)-c1ccccc1C2`, the IC50 in assay [14] was over 200 µM; in assay [2] it was over 300 µM; in assay [15], 8.1 µM; in assay [8] it was 23.1 µM; in [6], 306 µM.

In the case of `Nc1nc2c(c(Nc3cccc(Br)c3)n1)-c1ccccc1C2`, the IC50 in [1] is over 12 µM; in [14], over 200 µM; in assay [3], over 12 µM; in [12], over 200 µM; in [4], over 14 µM; in [5], over 12 µM. Moreover, the IC50 was over 500 µM in assay [6], over 200 µM in assay [13] and over 14 µM in [7].

Regarding `Nc1nc2c(c(Nc3ccc(Br)cc3)n1)-c1ccccc1C2`, the IC50 in assay [14] came out at 30.1 µM; in assay [15] it was 19.1 µM; in assay [8], 38.9 µM; in assay [6] it was 103 µM.

Take `CC(C)c1ccccc1Nc1nc(N)nc2c1-c1ccccc1C2`: the IC50 in assay [14] was over 200 µM; in [2], over 200 µM; in assay [15], 2.12 µM; in [6], 126 µM.

For the compound `Nc1nc2c(c(Nc3ccc(F)cc3)n1)-c1ccccc1C2`, the IC50 worked out at 89.3 µM in assay [14]; 276 µM in assay [2]; 46.7 µM in [15]; 5.9 µM in assay [8]; 50.3 µM in [6].

As to `Nc1nc2c(c(Nc3ccccc3)n1)-c1ccccc1C2`, the IC50 was over 200 µM in assay [2], over 200 µM in [12], 4.9 µM in [6] and over 200 µM in assay [13].

For `CC(C)c1ccc(Nc2nc(N)nc3c2-c2ccccc2C3)cc1`, the IC50 in assay [1] is over 14 µM; in [3], over 14 µM; in [4], over 16 µM; in assay [5], over 14 µM; in assay [6], 126 µM; in assay [7], over 16 µM.

`COc1cccc(Nc2nc(N)nc3c2-c2ccccc2C3)c1`: the IC50 in assay [2] was over 200 µM; in assay [12], over 200 µM; in assay [6], 13.9 µM; in [13] it was over 200 µM.
